# Measured values as given in PMC6197744, “Triazolo[4,5-d]pyrimidines as Validated General Control Nonderepressible 2 (GCN2) Protein Kinase Inhibitors Reduce Growth of Leukemia Cells” (Computational and Structural Biotechnology Journal, 2018).
# Key:
# Test in all cases: Broad kinase panel screen (split-luciferase)
# Format in all cases: binding
# ABL1 = target: T1, ABL1 (Homo sapiens, UniProt P00519); settings: ABL1, 0.5 uM
# T1 construct: purchased Luceome Biotechnologies
# Method: (§1) Compound 2 was screened against a standard panel of 50 protein kinases by Luceome Biotechnologies (Tucson, AZ). In brief, Compound 2 was dissolved and diluted in DMSO to a concentration of 12.5 μM from a 10 mM stock solution. As a control, compound 2 was evaluated for false positive against split-luciferase. For kinase assays, each C-terminal half of firefly luciferase linked kinase (Cfluc-Kinase) was translated along with the coiled coil Fos attached to the N-terminal fragment (Nfluc) (Fos-Nfluc) using rabbit reticulocyte lysate at 30 °C for 90 min. 24 µL aliquot of this lysate containing 1 µL of either DMSO or Compound 2 (at a final concentration 0.5 μM) was incubated for 30 minutes at room temperature followed by 1 hour incubation in the presence of a kinase specific probe. Finally, 80 µL of luciferin assay reagent was added and luminescence was immediately measured on a luminometer. Compound 2 was screened in duplicate against each kinase.
# (§2) The % Inhibition and % Activity Remaining was calculated using the following equations: […]
# AKT1 = target: T2, AKT1 (Homo sapiens, UniProt P31749); settings: AKT1, 0.5 uM
# T2 construct: purchased Luceome Biotechnologies
# Method: as §1, §2
# AKT3 = target: T3, AKT3 (Homo sapiens, UniProt Q9Y243); settings: AKT3, 0.5 uM
# T3 construct: purchased Luceome Biotechnologies
# Method: as §1, §2
# AMPK-a1/AMPK = target: T4, AMPK-a1/AMPK (Homo sapiens, UniProt Q13131)
# T4 construct: purchased Luceome Biotechnologies
# Method: as §1, §2
# AURKA = target: T5, AURKA (Homo sapiens, UniProt O14965)
# T5 construct: purchased Luceome Biotechnologies
# Method: as §1, §2
# AURKB = target: T6, AURKB (Homo sapiens, UniProt Q96GD4)
# T6 construct: purchased Luceome Biotechnologies
# Method: as §1, §2
# CAMK1D = target: T7, CAMK1D (Homo sapiens, UniProt Q8IU85)
# T7 construct: purchased Luceome Biotechnologies
# Method: as §1, §2
# CDK5 = target: T8, CDK5 (Homo sapiens, UniProt Q00535); settings: CDK5, 0.5 uM
# T8 construct: purchased Luceome Biotechnologies
# Method: as §1, §2
# DAPK3 = target: T9, DAPK3 (Homo sapiens, UniProt O43293); settings: DAPK3, 0.5 uM
# T9 construct: purchased Luceome Biotechnologies
# T9 sequence (O43293 whole entry): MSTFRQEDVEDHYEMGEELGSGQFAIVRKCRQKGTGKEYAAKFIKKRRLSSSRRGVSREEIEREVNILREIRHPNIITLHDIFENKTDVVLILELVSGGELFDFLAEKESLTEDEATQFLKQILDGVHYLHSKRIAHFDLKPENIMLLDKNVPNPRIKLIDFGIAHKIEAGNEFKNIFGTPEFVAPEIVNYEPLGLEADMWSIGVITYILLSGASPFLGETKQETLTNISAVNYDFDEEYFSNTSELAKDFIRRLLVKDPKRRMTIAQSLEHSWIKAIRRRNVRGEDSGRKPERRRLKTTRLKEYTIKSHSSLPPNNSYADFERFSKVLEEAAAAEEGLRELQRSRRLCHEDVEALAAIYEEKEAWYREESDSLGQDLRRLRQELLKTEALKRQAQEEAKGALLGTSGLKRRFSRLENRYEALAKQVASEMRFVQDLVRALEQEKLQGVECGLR
# Method: as §1, §2
# DDR1 = target: T10, DDR1 (Homo sapiens, UniProt Q08345); settings: DDR1, 0.5 uM
# T10 construct: purchased Luceome Biotechnologies
# Method: as §1, §2
# FLT1/VEGFR1 = target: T11, FLT1/VEGFR1 (Homo sapiens, UniProt P17948); settings: FLT1/VEGFR1, 0.5 uM
# T11 construct: purchased Luceome Biotechnologies
# Method: as §1, §2
# FLT3 = target: T12, FLT3 (Homo sapiens, UniProt P36888); settings: FLT3, 0.5 uM
# T12 construct: purchased Luceome Biotechnologies
# Method: as §1, §2
# HCK = target: T13, HCK (Homo sapiens, UniProt P08631)
# T13 construct: purchased Luceome Biotechnologies
# Method: as §1, §2
# IGF1R = target: T14, IGF1R (Homo sapiens, UniProt P08069)
# T14 construct: purchased Luceome Biotechnologies
# Method: as §1, §2
# KIT = target: T15, KIT (Homo sapiens, UniProt P10721)
# T15 construct: purchased Luceome Biotechnologies
# Method: as §1, §2
# MAP3K10 /MLK2 = target: T16, MAP3K10 /MLK2 (Homo sapiens, UniProt Q02779); settings: MAP3K10 /MLK2, 0.5 uM
# T16 construct: purchased Luceome Biotechnologies
# Method: as §1, §2
# MARK2 = target: T17, MARK2 (Homo sapiens, UniProt Q7KZI7); settings: MARK2, 0.5 uM
# T17 construct: purchased Luceome Biotechnologies
# Method: as §1, §2
# MSK2/RPS6KA4 = target: T18, MSK2/RPS6KA4 (Homo sapiens, UniProt O75676); settings: MSK2/RPS6KA4, 0.5 uM
# T18 construct: purchased Luceome Biotechnologies
# T18 sequence (O75676 whole entry): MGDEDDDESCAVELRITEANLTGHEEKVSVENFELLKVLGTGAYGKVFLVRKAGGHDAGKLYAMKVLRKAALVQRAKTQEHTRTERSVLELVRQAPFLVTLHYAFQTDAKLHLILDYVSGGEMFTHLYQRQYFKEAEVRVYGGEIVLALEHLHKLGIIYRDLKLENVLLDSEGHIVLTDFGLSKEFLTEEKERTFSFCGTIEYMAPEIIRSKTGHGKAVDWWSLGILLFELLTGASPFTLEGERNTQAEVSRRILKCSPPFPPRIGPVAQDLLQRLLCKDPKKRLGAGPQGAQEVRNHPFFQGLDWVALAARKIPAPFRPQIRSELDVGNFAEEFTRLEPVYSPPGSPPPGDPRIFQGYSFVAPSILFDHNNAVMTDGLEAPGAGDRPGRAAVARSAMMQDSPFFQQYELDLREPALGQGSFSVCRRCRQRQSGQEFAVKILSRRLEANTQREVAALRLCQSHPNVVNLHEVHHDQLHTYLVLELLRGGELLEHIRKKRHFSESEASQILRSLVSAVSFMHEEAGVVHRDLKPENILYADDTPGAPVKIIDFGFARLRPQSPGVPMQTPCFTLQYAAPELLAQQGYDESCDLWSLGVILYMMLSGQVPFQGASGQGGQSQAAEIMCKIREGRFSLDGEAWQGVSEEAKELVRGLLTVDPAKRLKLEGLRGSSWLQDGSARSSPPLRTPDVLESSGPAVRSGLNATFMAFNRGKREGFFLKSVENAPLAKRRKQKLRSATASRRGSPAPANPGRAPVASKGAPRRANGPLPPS
# Method: as §1, §2
# MST2 = target: T19, MST2 (Homo sapiens, UniProt Q13188); settings: MST2, 0.5 uM
# T19 construct: purchased Luceome Biotechnologies
# Method: as §1, §2
# PDGFRB = target: T20, PDGFRB (Homo sapiens, UniProt P09619)
# T20 construct: purchased Luceome Biotechnologies
# Method: as §1, §2
# PDK1/PDPK1 = target: T21, PDK1/PDPK1 (Homo sapiens, UniProt O15530); settings: PDK1/PDPK1, 0.5 uM
# T21 construct: purchased Luceome Biotechnologies
# Method: as §1, §2
# PIM1 = target: T22, PIM1 (Homo sapiens, UniProt P11309); settings: PIM1, 0.5 uM
# T22 construct: purchased Luceome Biotechnologies
# Method: as §1, §2
# PKA/PRKACA = target: T23, PKA/PRKACA (Homo sapiens, UniProt P17612)
# T23 construct: purchased Luceome Biotechnologies
# Method: as §1, §2
# PKCe/PRKCE = target: T24, PKCe/PRKCE (Homo sapiens, UniProt Q02156)
# T24 construct: purchased Luceome Biotechnologies
# T24 sequence (Q02156 whole entry): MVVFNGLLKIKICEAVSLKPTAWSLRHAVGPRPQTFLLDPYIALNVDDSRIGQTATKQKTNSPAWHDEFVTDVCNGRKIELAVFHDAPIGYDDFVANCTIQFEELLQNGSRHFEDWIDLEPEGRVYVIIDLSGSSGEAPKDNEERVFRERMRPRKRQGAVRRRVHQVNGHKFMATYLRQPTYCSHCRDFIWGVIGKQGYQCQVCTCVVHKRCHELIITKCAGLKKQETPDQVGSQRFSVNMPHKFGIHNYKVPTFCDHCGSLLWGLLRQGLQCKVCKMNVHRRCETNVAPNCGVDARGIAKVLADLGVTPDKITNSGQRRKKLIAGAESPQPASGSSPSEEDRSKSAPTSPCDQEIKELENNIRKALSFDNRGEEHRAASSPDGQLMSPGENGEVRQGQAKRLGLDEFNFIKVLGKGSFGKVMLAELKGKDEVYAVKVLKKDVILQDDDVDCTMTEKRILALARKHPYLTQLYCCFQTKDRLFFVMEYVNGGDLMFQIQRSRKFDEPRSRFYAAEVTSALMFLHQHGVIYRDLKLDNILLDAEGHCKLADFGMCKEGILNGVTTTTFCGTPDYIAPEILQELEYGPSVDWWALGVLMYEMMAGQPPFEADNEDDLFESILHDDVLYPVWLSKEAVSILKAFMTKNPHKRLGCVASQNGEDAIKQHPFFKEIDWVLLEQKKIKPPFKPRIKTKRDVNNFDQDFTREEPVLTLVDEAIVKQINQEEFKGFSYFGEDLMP
# Method: as §1, §2
# PKG1/PRKG1 = target: T25, PKG1/PRKG1 (Homo sapiens, UniProt Q13976); settings: PKG1/PRKG1, 0.5 uM
# T25 construct: purchased Luceome Biotechnologies
# T25 sequence (Q13976 whole entry): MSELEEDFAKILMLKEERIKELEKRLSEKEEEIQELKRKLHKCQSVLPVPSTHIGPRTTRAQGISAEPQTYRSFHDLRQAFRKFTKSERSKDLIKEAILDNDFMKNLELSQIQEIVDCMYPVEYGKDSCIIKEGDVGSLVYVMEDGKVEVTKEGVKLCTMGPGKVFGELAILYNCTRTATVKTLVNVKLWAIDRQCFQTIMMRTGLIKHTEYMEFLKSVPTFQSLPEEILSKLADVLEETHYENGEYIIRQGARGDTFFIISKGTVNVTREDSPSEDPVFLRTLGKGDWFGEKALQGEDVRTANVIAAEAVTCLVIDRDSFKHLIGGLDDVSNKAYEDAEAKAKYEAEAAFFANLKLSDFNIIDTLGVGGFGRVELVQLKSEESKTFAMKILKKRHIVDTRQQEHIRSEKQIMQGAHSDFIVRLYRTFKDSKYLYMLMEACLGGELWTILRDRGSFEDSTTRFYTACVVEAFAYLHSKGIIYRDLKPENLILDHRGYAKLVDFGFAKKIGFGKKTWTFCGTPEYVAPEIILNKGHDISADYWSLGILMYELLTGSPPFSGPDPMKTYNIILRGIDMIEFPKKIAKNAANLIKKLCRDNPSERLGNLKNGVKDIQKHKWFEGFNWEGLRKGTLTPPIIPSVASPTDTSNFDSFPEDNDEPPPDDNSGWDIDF
# Method: as §1, §2
# PLK4 = target: T26, PLK4 (Homo sapiens, UniProt O00444); settings: PLK4, 0.5 uM
# T26 construct: purchased Luceome Biotechnologies
# T26 sequence (O00444 whole entry): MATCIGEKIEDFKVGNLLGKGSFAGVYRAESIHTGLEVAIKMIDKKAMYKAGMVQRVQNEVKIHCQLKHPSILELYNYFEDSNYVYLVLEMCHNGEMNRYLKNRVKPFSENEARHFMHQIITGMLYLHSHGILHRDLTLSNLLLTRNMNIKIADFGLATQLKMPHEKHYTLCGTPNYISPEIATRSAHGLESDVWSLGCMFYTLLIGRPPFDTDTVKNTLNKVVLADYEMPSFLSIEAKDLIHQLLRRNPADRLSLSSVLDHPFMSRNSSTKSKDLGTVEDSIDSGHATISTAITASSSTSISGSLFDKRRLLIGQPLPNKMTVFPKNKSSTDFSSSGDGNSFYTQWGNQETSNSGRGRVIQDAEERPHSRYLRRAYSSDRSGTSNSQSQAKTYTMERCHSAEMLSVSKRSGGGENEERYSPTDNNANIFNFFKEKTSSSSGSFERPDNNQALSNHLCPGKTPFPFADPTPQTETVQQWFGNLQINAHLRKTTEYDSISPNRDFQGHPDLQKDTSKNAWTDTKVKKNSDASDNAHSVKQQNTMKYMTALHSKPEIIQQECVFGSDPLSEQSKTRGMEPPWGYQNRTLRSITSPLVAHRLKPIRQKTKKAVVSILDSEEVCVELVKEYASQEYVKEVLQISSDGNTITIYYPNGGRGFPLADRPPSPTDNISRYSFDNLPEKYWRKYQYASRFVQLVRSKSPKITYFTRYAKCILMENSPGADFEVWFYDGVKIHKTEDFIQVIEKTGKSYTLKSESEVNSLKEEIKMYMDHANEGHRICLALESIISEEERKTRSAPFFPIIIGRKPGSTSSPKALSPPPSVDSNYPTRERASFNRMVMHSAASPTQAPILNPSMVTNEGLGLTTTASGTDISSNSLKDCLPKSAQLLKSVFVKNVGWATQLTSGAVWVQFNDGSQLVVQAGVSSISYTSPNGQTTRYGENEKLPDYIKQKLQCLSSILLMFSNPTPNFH
# Method: as §1, §2
# PTK2B/PYK2 = target: T27, PTK2B/PYK2 (Homo sapiens, UniProt Q14289); settings: PTK2B/PYK2, 0.5 uM
# T27 construct: purchased Luceome Biotechnologies
# T27 sequence (Q14289 whole entry): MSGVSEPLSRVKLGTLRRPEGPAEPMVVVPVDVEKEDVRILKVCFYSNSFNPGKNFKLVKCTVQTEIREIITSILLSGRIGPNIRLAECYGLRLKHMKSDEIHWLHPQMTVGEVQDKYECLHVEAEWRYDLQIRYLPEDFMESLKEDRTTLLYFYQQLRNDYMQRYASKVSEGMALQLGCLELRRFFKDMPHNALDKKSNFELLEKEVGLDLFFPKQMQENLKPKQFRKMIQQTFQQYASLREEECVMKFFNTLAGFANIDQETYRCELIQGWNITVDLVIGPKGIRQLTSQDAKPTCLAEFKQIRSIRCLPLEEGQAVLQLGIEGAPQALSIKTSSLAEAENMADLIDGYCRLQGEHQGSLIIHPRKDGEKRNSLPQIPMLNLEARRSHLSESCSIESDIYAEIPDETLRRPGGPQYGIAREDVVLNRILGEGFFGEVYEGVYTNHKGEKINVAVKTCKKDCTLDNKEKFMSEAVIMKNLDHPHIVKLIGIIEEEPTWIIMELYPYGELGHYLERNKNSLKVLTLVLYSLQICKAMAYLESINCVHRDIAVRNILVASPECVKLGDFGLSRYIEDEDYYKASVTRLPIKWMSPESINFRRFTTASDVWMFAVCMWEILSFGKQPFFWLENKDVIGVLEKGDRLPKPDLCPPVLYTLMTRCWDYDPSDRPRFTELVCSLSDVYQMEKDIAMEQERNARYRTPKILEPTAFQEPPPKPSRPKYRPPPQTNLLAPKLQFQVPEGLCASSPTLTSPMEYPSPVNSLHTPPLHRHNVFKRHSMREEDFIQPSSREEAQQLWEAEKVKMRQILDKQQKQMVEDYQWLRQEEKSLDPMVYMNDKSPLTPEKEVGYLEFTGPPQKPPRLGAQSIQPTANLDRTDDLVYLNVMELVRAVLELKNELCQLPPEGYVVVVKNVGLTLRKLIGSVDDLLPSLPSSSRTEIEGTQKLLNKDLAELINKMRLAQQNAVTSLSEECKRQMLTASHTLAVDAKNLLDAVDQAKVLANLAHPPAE
# Method: as §1, §2
# RSK2/RPS6KA3 = target: T28, RSK2/RPS6KA3 (Homo sapiens, UniProt P51812); settings: RSK2/RPS6KA3, 0.5 uM
# T28 construct: purchased Luceome Biotechnologies
# Method: as §1, §2
# SIK1/SNF1LK = target: T29, SIK1/SNF1LK (Homo sapiens, UniProt P57059)
# T29 construct: purchased Luceome Biotechnologies
# Method: as §1, §2
# SLK = target: T30, SLK (Homo sapiens, UniProt Q9H2G2)
# T30 construct: purchased Luceome Biotechnologies
# Method: as §1, §2
# SRC = target: T31, SRC (Homo sapiens, UniProt P12931)
# T31 construct: purchased Luceome Biotechnologies
# Method: as §1, §2
# TNK1 = target: T32, TNK1 (Homo sapiens, UniProt Q13470); settings: TNK1, 0.5 uM
# T32 construct: purchased Luceome Biotechnologies
# Method: as §1, §2
# VEGFR2/KDR/FLK1 = target: T33, VEGFR2/KDR/FLK1 (Homo sapiens, UniProt P35968); settings: VEGFR2/KDR/FLK1, 0.5 uM
# T33 construct: purchased Luceome Biotechnologies
# Method: as §1, §2
# YANK2 = target: T34, YANK2 (Homo sapiens, UniProt Q9NY57); settings: YANK2, 0.5 uM
# T34 construct: purchased Luceome Biotechnologies
# T34 sequence (Q9NY57 whole entry): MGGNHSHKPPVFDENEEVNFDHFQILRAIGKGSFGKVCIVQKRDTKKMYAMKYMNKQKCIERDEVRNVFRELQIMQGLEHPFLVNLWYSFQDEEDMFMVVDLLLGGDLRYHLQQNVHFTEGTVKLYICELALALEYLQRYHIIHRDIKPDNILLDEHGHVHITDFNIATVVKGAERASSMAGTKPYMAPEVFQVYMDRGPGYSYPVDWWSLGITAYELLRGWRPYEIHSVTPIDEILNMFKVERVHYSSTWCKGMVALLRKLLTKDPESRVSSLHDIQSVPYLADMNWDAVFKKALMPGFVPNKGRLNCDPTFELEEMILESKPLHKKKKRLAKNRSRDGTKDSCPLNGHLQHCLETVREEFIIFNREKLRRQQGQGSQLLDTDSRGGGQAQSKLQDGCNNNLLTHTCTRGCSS
# Method: as §1, §2
# YSK1 = target: T35, YSK1 (Homo sapiens, UniProt O00506); settings: YSK1, 0.5 uM
# T35 construct: purchased Luceome Biotechnologies
# Method: as §1, §2
smiles,measurement,setting,value
"CCOc1ccc(-n2nnc3cnc(Nc4cnn(CC)c4)nc32)cc1 [Compound 2, 3-(4-Ethoxyphenyl)-N-(1-ethyl-1H-pyrazol-4-yl)-3H-[1,2,3]triazolo[4,5-d]pyrimidin-5-amine]",remaining activity at 0.5 µM,ABL1,88.9%
same,remaining activity at 0.5 µM,AKT1,98.4%
same,remaining activity at 0.5 µM,AKT3,100%
same,remaining activity at 0.5 µM,AMPK-a1/AMPK,100%
same,remaining activity at 0.5 µM,AURKA,97.1%
same,remaining activity at 0.5 µM,AURKB,94.7%
same,remaining activity at 0.5 µM,CAMK1D,92.9%
same,remaining activity at 0.5 µM,CDK5,94.4%
same,remaining activity at 0.5 µM,DAPK3,97.6%
same,remaining activity at 0.5 µM,DDR1,93.1%
same,remaining activity at 0.5 µM,FLT1/VEGFR1,51.7%
same,remaining activity at 0.5 µM,FLT3,100%
same,remaining activity at 0.5 µM,HCK,96%
same,remaining activity at 0.5 µM,IGF1R,100%
same,remaining activity at 0.5 µM,KIT,88.8%
same,remaining activity at 0.5 µM,MAP3K10 /MLK2,96.7%
same,remaining activity at 0.5 µM,MARK2,99.3%
same,remaining activity at 0.5 µM,MSK2/RPS6KA4,100%
same,remaining activity at 0.5 µM,MST2,100%
same,remaining activity at 0.5 µM,PDGFRB,84.4%
same,remaining activity at 0.5 µM,PDK1/PDPK1,96.2%
same,remaining activity at 0.5 µM,PIM1,93.4%
same,remaining activity at 0.5 µM,PKA/PRKACA,100%
same,remaining activity at 0.5 µM,PKCe/PRKCE,100%
same,remaining activity at 0.5 µM,PKG1/PRKG1,96%
same,remaining activity at 0.5 µM,PLK4,100%
same,remaining activity at 0.5 µM,PTK2B/PYK2,96%
same,remaining activity at 0.5 µM,RSK2/RPS6KA3,89.9%
same,remaining activity at 0.5 µM,SIK1/SNF1LK,99.9%
same,remaining activity at 0.5 µM,SLK,98.7%
same,remaining activity at 0.5 µM,SRC,99.1%
same,remaining activity at 0.5 µM,TNK1,100%
same,remaining activity at 0.5 µM,VEGFR2/KDR/FLK1,77.1%
same,remaining activity at 0.5 µM,YANK2,100%
same,remaining activity at 0.5 µM,YSK1,93.6%
